ChEMBL document CHEMBL5465560, “Selectivity Literature for EUbOPEN Chemogenomic Library” (2024)

Tests used:
[1] = target: Phosphatidylinositol 4-kinase beta (Homo sapiens, UniProt Q9UBF8); assay: Selectivity interaction (Kinase panel (Invitrogen)) EUB0000639a PI4KB; settings: at 200 nM
[2] = target: T1, Myosin-IIIb (Homo sapiens) (UniProt Q8WXR4); assay: Selectivity interaction (KinomeScan (DiscoverX)) EUB0000595a MYO3B; settings: at 10 µM
T1 sequence (whole entry): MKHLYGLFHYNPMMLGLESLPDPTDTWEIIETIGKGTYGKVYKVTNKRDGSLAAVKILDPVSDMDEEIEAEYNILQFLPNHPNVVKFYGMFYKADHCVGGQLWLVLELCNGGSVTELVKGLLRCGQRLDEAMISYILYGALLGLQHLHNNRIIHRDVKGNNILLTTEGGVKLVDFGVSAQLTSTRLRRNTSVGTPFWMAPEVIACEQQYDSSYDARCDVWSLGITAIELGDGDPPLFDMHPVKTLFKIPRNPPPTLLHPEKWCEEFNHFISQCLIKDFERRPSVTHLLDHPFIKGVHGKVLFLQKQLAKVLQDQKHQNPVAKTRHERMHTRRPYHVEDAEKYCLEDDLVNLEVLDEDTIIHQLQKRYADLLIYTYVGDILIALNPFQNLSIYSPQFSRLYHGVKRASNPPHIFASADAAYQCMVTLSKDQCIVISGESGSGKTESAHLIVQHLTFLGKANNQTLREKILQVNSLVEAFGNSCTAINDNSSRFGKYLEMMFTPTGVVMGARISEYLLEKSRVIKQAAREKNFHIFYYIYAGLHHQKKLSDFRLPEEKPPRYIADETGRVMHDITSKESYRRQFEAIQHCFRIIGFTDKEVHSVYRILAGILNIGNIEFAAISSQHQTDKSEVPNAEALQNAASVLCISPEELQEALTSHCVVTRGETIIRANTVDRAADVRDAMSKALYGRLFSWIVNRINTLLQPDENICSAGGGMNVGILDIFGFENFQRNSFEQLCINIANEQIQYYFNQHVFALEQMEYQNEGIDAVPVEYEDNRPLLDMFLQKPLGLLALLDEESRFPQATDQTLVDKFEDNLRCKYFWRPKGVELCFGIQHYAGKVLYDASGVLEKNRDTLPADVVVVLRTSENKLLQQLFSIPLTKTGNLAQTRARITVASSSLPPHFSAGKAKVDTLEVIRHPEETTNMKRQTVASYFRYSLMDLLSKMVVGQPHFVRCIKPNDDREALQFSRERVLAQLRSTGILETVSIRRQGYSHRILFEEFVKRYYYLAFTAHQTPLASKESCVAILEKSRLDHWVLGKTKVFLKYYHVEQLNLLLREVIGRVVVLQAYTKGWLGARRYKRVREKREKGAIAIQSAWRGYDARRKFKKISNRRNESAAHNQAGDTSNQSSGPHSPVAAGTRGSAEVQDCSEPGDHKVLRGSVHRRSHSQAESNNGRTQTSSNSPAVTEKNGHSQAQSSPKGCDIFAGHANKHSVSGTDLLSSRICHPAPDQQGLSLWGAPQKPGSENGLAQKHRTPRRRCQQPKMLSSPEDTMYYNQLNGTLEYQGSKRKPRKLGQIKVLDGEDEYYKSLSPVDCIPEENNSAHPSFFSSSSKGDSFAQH

[3] = target: Serine/threonine-protein kinase SIK3 (Homo sapiens) (UniProt Q9Y2K2); assay: Selectivity interaction (KinomeScan (DiscoverX)) EUB0000092b SIK3; settings: at 10 µM
Chain of Serine/threonine-protein kinase SIK3 (Homo sapiens) (Q9Y2K2 whole entry, looked up): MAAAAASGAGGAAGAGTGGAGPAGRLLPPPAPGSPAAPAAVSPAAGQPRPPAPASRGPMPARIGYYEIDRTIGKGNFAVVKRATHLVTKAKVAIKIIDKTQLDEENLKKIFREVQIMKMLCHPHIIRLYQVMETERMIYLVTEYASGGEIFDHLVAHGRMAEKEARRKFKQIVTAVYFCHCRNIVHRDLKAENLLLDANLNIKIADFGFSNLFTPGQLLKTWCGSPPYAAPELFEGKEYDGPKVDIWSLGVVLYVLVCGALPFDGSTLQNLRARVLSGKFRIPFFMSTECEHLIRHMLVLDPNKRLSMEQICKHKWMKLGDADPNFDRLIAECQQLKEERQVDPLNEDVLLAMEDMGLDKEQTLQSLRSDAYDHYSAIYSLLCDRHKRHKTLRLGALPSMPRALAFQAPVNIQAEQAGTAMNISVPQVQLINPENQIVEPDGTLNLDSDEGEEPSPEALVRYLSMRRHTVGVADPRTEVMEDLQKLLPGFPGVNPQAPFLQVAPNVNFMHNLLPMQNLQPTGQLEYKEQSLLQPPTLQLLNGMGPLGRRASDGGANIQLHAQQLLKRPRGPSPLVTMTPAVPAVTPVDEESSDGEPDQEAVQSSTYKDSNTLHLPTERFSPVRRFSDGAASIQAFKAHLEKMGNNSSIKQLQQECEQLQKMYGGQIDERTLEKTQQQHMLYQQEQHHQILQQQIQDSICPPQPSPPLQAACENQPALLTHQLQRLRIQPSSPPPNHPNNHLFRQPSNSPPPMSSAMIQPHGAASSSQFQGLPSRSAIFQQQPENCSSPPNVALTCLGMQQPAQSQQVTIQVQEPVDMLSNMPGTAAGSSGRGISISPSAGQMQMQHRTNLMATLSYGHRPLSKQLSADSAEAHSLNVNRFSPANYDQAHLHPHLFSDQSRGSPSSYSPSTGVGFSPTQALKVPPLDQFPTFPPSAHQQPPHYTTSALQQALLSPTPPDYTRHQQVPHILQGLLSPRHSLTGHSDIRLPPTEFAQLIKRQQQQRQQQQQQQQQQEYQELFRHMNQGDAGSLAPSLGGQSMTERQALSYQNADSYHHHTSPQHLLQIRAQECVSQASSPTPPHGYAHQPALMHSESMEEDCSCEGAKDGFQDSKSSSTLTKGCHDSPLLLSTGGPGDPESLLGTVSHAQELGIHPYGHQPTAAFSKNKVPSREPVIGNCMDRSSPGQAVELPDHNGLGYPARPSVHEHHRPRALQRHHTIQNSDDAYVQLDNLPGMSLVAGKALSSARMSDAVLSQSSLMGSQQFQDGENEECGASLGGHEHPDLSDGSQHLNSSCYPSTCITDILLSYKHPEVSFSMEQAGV

[4] = target: T2, Mitogen-activated protein kinase kinase kinase 19 (Homo sapiens) (UniProt Q56UN5); assay: Selectivity interaction (Ambit KINOMEscan and KiNATiv profiling in Jurkat cells) EUB0000090b MAP3K19; assay type: cell-based; settings: at 1 µM
T2 sequence (whole entry): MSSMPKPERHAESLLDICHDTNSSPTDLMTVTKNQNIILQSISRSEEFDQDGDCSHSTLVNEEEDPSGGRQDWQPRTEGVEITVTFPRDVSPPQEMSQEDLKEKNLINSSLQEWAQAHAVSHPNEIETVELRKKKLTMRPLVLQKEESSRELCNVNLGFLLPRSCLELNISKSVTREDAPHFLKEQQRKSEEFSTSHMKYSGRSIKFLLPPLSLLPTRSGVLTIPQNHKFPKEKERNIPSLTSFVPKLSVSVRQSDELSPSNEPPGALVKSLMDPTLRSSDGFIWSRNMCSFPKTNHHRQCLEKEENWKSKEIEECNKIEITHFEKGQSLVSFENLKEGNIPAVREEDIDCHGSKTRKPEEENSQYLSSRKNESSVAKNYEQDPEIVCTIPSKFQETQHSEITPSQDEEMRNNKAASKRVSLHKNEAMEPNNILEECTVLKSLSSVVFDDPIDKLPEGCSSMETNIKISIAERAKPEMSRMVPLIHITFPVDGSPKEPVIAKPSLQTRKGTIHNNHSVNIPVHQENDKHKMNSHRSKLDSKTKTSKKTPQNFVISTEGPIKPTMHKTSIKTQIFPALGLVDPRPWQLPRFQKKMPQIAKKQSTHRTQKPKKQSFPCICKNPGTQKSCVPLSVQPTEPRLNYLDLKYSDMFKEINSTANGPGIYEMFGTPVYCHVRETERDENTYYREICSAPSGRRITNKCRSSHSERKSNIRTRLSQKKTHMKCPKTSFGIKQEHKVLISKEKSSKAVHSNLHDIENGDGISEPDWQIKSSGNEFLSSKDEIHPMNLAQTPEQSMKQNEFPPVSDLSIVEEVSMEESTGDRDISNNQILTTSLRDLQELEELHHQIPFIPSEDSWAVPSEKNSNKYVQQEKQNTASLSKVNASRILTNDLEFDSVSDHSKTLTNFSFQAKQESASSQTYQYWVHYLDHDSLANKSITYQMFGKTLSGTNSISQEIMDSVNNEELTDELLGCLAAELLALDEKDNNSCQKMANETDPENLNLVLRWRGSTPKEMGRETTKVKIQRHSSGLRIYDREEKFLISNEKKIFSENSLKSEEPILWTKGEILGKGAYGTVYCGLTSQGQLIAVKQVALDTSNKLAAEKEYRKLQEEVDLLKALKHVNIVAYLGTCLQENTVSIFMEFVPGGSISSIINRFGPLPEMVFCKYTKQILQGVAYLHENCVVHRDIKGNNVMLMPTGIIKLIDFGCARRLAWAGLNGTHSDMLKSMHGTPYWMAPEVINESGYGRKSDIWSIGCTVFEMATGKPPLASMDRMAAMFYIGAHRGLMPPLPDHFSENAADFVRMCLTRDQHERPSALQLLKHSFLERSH

[5] = target: Receptor tyrosine-protein kinase erbB-4 (Homo sapiens, UniProt Q15303); assay: Selectivity interaction (SelectScreen profiling (Invitrogen)) EUB0000607a ERBB4; settings: at 2 µM
Chain of Receptor tyrosine-protein kinase erbB-4 (Q15303 whole entry): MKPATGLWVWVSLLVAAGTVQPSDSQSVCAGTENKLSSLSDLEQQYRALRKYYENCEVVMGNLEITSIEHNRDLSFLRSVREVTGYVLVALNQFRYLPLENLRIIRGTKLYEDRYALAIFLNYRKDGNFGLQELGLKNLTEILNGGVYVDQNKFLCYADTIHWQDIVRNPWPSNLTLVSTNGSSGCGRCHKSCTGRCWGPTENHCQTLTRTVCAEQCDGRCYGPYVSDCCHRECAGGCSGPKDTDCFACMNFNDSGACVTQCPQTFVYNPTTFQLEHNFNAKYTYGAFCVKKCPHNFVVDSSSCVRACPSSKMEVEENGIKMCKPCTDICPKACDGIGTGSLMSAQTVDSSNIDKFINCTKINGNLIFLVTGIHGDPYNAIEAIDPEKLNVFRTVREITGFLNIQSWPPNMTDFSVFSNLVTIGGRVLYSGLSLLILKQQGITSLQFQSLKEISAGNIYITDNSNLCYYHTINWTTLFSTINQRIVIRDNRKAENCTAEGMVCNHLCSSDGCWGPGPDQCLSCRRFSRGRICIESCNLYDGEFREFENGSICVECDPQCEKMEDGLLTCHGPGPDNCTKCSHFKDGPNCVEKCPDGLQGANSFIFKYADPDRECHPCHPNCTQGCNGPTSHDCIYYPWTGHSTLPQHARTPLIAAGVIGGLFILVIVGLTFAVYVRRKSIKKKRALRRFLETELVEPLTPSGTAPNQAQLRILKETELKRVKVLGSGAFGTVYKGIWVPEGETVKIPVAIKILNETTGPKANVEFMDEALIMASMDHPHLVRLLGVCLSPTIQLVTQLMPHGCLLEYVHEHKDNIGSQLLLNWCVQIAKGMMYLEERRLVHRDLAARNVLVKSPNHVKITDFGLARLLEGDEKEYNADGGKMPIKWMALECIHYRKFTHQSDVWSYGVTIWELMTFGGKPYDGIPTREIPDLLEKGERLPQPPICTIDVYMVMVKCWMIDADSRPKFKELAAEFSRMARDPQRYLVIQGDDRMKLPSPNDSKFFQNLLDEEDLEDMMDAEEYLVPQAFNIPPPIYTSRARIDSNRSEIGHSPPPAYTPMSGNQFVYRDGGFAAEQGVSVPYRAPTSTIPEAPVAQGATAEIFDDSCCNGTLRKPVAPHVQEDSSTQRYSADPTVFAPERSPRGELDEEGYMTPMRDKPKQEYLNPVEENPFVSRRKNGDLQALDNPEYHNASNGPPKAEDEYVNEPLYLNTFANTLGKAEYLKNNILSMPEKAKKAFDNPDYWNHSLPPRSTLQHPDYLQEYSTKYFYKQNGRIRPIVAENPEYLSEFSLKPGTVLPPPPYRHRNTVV

[6] = target: BDNF/NT-3 growth factors receptor (Homo sapiens) (UniProt Q16620); assay: Selectivity interaction (ProQinase) EUB0000171b NTRK2
Chain of BDNF/NT-3 growth factors receptor (Homo sapiens) (Q16620 32-822 limits assumed): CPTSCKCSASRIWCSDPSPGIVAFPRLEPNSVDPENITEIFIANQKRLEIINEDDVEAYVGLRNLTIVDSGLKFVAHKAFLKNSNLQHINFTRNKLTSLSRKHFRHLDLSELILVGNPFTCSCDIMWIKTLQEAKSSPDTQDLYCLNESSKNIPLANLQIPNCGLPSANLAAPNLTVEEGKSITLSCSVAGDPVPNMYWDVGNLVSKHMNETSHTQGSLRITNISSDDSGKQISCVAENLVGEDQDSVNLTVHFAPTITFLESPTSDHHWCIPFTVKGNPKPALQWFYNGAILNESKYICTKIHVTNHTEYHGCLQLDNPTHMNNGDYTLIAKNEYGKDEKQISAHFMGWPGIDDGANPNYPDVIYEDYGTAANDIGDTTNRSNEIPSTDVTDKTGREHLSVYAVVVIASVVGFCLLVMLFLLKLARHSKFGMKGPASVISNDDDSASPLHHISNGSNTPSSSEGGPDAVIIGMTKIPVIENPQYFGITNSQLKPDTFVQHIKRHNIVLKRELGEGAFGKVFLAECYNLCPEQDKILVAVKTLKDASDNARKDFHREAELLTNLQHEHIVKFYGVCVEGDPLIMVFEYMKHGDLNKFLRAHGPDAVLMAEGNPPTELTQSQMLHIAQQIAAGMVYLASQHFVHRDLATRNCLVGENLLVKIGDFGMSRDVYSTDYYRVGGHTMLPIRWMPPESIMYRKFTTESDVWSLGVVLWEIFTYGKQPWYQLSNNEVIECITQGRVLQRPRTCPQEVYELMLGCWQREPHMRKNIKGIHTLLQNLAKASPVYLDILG

Chain of Phosphatidylinositol 4-kinase beta (Q9UBF8 2-816 limits assumed): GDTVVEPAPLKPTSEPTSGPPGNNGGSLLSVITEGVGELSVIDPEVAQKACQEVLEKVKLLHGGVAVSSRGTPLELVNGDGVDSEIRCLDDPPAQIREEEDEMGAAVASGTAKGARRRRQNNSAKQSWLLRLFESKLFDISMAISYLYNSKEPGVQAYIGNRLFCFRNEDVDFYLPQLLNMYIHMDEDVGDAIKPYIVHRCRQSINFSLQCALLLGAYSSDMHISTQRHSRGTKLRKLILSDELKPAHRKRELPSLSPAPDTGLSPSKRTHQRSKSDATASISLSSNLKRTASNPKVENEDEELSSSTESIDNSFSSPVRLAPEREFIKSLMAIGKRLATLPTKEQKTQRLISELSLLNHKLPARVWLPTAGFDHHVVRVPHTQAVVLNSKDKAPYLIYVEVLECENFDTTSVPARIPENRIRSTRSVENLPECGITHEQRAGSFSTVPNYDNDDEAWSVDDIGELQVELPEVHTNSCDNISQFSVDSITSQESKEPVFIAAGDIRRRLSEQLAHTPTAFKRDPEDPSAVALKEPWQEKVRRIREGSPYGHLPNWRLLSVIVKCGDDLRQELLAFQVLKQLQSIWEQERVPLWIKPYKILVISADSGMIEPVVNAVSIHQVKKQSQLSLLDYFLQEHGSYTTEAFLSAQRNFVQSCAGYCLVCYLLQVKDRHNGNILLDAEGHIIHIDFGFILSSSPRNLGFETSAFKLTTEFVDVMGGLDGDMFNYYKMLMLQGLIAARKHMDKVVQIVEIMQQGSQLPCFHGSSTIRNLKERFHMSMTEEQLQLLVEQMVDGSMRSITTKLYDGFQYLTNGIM

**Q.** For CC[C@@H]1[C@H](F)C(=O)N[C@@H]1COc1nccc2cc(C(N)=O)c(OC)cc12 [ZIMLOVISERTIB], which % of inhibition [1] is on record?
**A.** -0.901%

**Q.** COCC(=O)NC/C=C/c1ccc2ncnc(Nc3ccc(Oc4ccc(C)nc4)c(C)c3)c2c1 [CP-724714] was tested. Which % of control [2] did it give?
**A.** 100%

**Q.** CCC(=O)N1CCN(c2ccc(-n3c(=O)ccc4cnc5ccc(-c6cnc7ccccc7c6)cc5c43)cc2C(F)(F)F)CC1 was tested. Which % of control [3] did it give?
**A.** 89%

**Q.** With CN(C)C/C=C/C(=O)Nc1ccc(C(=O)N2CCCC(Nc3ncc(Cl)c(-c4c[nH]c5ccccc45)n3)C2)cc1 (configuration not stated) as the compound, how does the % of control [4] read?
**A.** 98%

**Q.** How did the % of inhibition [5] turn out when CNC(=O)Nc1ccc(-c2nc(N3CC4CCC(C3)O4)c3cnn(C4CCC5(CC4)OCCO5)c3n2)cc1 was run?
**A.** 3%

**Q.** C=CC(=O)Nc1cccc(C(=O)Nc2ccc(Nc3cc(-c4[nH]c(SC)nc4C)ccn3)cc2)c1 was tested. Which % of control ([6]; at 1 µM) did it give?
**A.** 89%

**Q.** And the % of control ([6]; at 5 µM)?
**A.** 81%
